From paper PMC7224190, “Pharmacological inhibition of PRMT7 links arginine monomethylation to the cellular stress response” (Nature Communications, 2020)
pIC50: −log10 of the molar value.

Molecular target: T1, PRMT7 (Homo sapiens, UniProt Q9NVM4)
T1 sequence (Q9NVM4 1-692): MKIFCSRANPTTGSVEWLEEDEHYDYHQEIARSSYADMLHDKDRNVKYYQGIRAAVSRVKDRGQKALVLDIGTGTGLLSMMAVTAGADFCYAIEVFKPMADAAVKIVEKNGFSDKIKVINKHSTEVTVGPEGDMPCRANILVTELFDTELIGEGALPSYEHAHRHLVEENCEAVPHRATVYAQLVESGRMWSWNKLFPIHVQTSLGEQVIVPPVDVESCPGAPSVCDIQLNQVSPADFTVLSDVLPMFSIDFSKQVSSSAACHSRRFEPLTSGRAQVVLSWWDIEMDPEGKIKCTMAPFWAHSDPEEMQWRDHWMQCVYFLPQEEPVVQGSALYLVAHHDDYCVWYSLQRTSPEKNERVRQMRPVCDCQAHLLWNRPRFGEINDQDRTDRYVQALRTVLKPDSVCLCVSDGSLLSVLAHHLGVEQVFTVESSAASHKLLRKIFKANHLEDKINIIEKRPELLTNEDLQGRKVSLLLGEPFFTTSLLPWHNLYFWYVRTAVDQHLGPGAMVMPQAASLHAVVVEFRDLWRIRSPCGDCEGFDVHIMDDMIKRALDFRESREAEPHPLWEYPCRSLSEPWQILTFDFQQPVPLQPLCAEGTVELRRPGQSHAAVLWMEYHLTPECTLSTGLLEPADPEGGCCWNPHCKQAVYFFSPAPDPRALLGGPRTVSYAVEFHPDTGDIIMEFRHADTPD
Assay: radiometric SPA methyltransferase assay, 3H-SAM and H2B ([…])
Format: biochemical

## Nc1ncnc2c1ncn2[C@@H]1O[C@H](CSCCCNCc2cccc(-c3ccc(Cl)cc3)c2)[C@@H](O)[C@H]1O [SGC8172]
  pIC50: > 8.60
